One test concerns Musca domestics. In words: Test Example 4: filter paper with sucrose bait, female housefly imagoes. To be noted: 0.7 ml on filter paper with 30 mg sucrose, ten female imagoes, after 24 hours, read-out: rate of dead pests. It counts as in vivo, Musca domestica. As for the experimental part:
The formulation obtained according to Formulation Example 5 using the present invention compounds (1), (7), (13)-(17), (20), (28), (32), (36), (37), (39), (44)-(46), (53), (55), (57)-(62), (64)-(70) and (71) respectively, was diluted with water so that the active ingredient concentration came to 500 ppm to prepare a pesticidal solution for test.
On the bottom of a polyethylene cup having a diameter of 5.5 cm, a filter paper having the same diameter was laid, and 0.7 ml of the above pesticidal solution for test was added dropwise on the filter paper, followed by putting 30 mg of sucrose on it uniformly as a bait. Ten female Musca domestics imagoes were set free in the polyethylene cup and covered it with a lid. After 24 hours, the number of surviving Musca domestics was examined and the rate of dead pests was calculated.

The subject of the next test is Culex pipiens pallens. In words: Test Example 6: last-instar mosquito larvae in treated water. To be noted: 24 h, read-out: rate of dead pests. Type of test: in vivo. The method, then:
The formulation obtained according to Formulation Example 5 using the present invention compounds (7), (8)-(11), (14)-(16), (20), (21), (24)-(26), (28), (29), (31), (37)-(39), (44)-(47), (51), (53), (55), (57), (58), (60)-(67), (69), (70) and (71) respectively, was diluted with water so that the active ingredient concentration came to 500 ppm to prepare a pesticidal solution for test.
0.7 ml of above pesticidal solution for test was added to 100 ml of ion exchanged water (active ingredient concentration: 3.5 ppm). Twenty last-instar larvae of Culex pipiens pallens were set free in the solution. After one day, the number of surviving Culex pipiens pallens was examined and the rate of dead pests was calculated.

Another test has as its system Blattella germanica. In words: Test Example 5: filter paper with sucrose bait, male German cockroach imagoes. To be noted: 144 h, 0.7 ml on filter paper with 30 mg sucrose, two male imagoes, after 6 days, read-out: rate of dead pests. Type of test: in vivo. As for the experimental part:
The formulation obtained according to Formulation Example 5 using the present invention compounds (1), (25), (28), (36), (39), (40), (44)-(46), (47), (57), (58), (64), (65) and (67) respectively, was diluted with water so that the active ingredient concentration came to 500 ppm to prepare a pesticidal solution for test.
On the bottom of a polyethylene cup having a diameter of 5.5 cm, a filter paper having the same diameter was laid, and 0.7 ml of the above pesticidal solution for test was added dropwise on the filter paper, followed by putting 30 mg of sucrose on it uniformly as a bait. Two male Blattalla germanica imagoes were set free in the polyethylene cup and covered it with a lid. After 6 days, the number of surviving Blattella germanica was examined and the rate of dead pests was calculated.

The next test relates to Nilaparvata lugens. In words: Test Example 1: spray on rice plants, Nilaparvata lugens larvae, 2000 ppm. Type of test: in vivo. To be noted: sprayed 20 ml/cup on rice plants, thirty first-instar larvae released, sixth day after release, 25° C. As for the experimental part:
The formulation obtained according to Formulation Example 5 using the present invention compound (74) and the reference compound (1) respectively, was diluted with water so that the active ingredient concentration came to 2000 ppm to prepare a pesticidal solution for test. At the same time, 50 grams of molding Bonsoru 2 (available from Sumitomo Chemical Co., Ltd.) was put into a polyethylene cup, and 10 to 15 seeds of rice were planted in the polyethylene cup. The rice plants were grown until the second foliage leaves developed and then cut into the same height of 5 cm. The pesticidal solution for test prepared above was sprayed at the rate of 20 ml/cup to these rice plants. After the pesticidal solution sprayed onto the rice plants were dried, they were put into a plastic cup for escape prevention of test pests, and thirty first-instar larvae of Nilaparvata lugens were set free on the rice plants, followed by covering the plastic cup with a lid. Then the plastic cup was left in a greenhouse (25° C.). On the sixth day after the release of larvae of Nilaparvata lugens, the number of parasitic Nilaparvata lugens on the rice plants was examined.

[1] abbreviates: 0.7 ml of 500 ppm solution in 100 ml water (active ingredient concentration: 3.5 ppm), twenty last-instar larvae, after one day.

Where two headings read alike, the source gives them in different places.

On to `CCOC(=O)C(C)C(C#N)(C#N)CCC(F)(F)F` (stereo not shown) [present invention compound (7), 2-[1-(ethoxycarbonyl)ethyl]-2-(3,3,3-trifluoropropyl)malononitrile], for which the pest or weed control at 500 ppm in the test with Musca domestics is not below 90%. In addition, the pest or weed control at 3.5 µg/mL in the test on Culex pipiens pallens (setting [1]) was 100%. On to `N#CC(C#N)(CCC(F)(F)F)CC(=O)OC1CCCCC1` [present invention compound (20), 2-(cyclohexyloxycarbonylmethyl)-2-(3,3,3-trifluoropropyl)malononitrile], for which the pest or weed control at 500 ppm in the test with Musca domestics was not below 90%. In addition, the pest or weed control at 3.5 µg/mL in the test with Culex pipiens pallens (setting [1]) came out at 100%. Regarding `CC(C)(C)OC(=O)CC(C#N)(C#N)CCC#N` [present invention compound (21), 2-(tert-butoxycarbonylmethyl)-2-(2-cyanoethyl)malononitrile], in the test on Culex pipiens pallens, the pest or weed control at 3.5 µg/mL came out at 100%. Turning to `CC(CCl)CC(C#N)(C#N)CC(=O)OC(C)(C)C` (stereo not shown) [present invention compound (25), 2-(tert-butoxycarbonylmethyl)-2-(3-chloro-2-methylpropyl)malononitrile], the pest or weed control at 500 ppm in the test on Blattella germanica turned out to be 100%. For the molecule `CCCCC(C#N)(C#N)CC(=O)OC(C)(C)C` [present invention compound (28), 2-(tert-butoxycarbonylmethyl)-2-butylmalononitrile], the pest or weed control at 500 ppm was not below 90% in the test with Musca domestics and 100% with Blattella germanica. Moreover, the pest or weed control at 3.5 µg/mL in the test on Culex pipiens pallens (setting [1]) worked out at 100%. For the molecule `CCCCCC(C#N)(C#N)CC(=O)OC(C)(C)C` [present invention compound (29), 2-(tert-butoxycarbonylmethyl)-2-pentylmalononitrile], the pest or weed control at 3.5 µg/mL in the test on Culex pipiens pallens (setting [1]) is 100%. For `CC(C)CCC(C#N)(C#N)CC(=O)OC(C)(C)C` [present invention compound (31), 2-(tert-butoxycarbonylmethyl)-2-(3-methylbutyl)malononitrile], in the test with Culex pipiens pallens (setting [1]), the pest or weed control at 3.5 µg/mL was 100%. Consider `CCC(C)C(C#N)(C#N)CC(=O)OC(C)(C)C` (stereo not shown) [present invention compound (32), 2-(tert-butoxycarbonylmethyl)-2-(1-methylpropyl)malononitrile], for which the pest or weed control at 500 ppm in the test on Musca domestics was not below 90%. Consider `CC=CCC(C#N)(C#N)CC(=O)OC(C)(C)C` [present invention compound (36), 2-(tert-butoxycarbonylmethyl)-2-(2-butenyl)malononitrile], for which the results for the pest or weed control at 500 ppm in the test with Musca domestics and in the test on Blattella germanica were not below 90% and 100%, respectively. `CCCC(C#N)(C#N)CC(=O)OC(C)(C)C` [present invention compound (37), 2-(tert-butoxycarbonylmethyl)-2-propylmalononitrile]: the pest or weed control at 500 ppm in the test on Musca domestics is not below 90%. In the case of `CCCCC(C#N)(C#N)C(C)C(=O)OC(C)(C)C` (stereo not shown) [present invention compound (39), 2-[1-(tert-butoxycarbonyl)ethyl]-2-butylmalononitrile], the pest or weed control at 500 ppm in the test on Musca domestics was not below 90%; in the test on Blattella germanica it was 100%.

Consider `CC(C)(C)OC(=O)CC(C#N)(C#N)CCC(F)=C(F)F` [present invention compound (40), 2-(tert-butoxycarbonylmethyl)-2-(3,4,4-trifluoro-3-butenyl)malononitrile], for which the pest or weed control at 500 ppm with Blattella germanica came out at 100%. For the molecule `CC(C)(C)SC(=O)CC(C#N)(C#N)CCC(F)(F)F` [present invention compound (47), 2-[(tert-butylthio)carbonylmethyl]-2-(3,3,3-trifluoropropyl)malononitrile], the pest or weed control at 500 ppm in the test with Blattella germanica worked out at 100%. On to `CC(C)(C)OC(=O)CC(C#N)(C#N)CCCC(F)(F)F` [present invention compound (51), 2-(tert-butoxycarbonylmethyl)-2-(4,4,4-trifluorobutyl)malononitrile], for which the pest or weed control at 3.5 µg/mL with Culex pipiens pallens (setting [1]) was found to be 100%. For `CC(C)(C)COC(=O)CC(C#N)(C#N)CCC(F)(F)F` [present invention compound (53), 2-[(2,2-dimethylpropoxy)carbonylmethyl]-2-(3,3,3-trifluoropropyl)malononitrile], the pest or weed control at 500 ppm in the test on Musca domestics is not below 90%. For the same molecule, the pest or weed control at 3.5 µg/mL in the test with Culex pipiens pallens (setting [1]) was 100%. For `CC(CCl)OC(=O)CC(C#N)(C#N)CCC(F)(F)F` (stereo not shown) [present invention compound (55), 2-[(2-chloro-1-methylethoxy)carbonylmethyl]-2-(3,3,3-trifluoropropyl)malononitrile], in the test on Musca domestics, the pest or weed control at 500 ppm is not below 90%. The pest or weed control at 3.5 µg/mL in the test on Culex pipiens pallens (setting [1]) was 100%. Take `C#CC(C)(C)OC(=O)CC(C#N)(C#N)CCC(F)(F)F` [present invention compound (57), 2-[(1,1-dimethyl-2-propynyl)oxycarbonylmethyl]-2-(3,3,3-trifluoropropyl)malononitrile]: the pest or weed control at 500 ppm with Blattella germanica was found to be 100%. The pest or weed control at 3.5 µg/mL in the test on Culex pipiens pallens (setting [1]) was 100%. `C#CC(C)(CC)OC(=O)CC(C#N)(C#N)CCC(F)(F)F` (stereo not shown) [present invention compound (58), 2-((1-ethyl-1-methyl-2-propynyloxycarbonyl)methyl)-2-(3,3,3-trifluoropropyl)malononitrile]: in the test on Blattella germanica, the pest or weed control at 500 ppm was 100%. Also, in the test with Culex pipiens pallens (setting [1]), the pest or weed control at 3.5 µg/mL came out at 100%. As to `C#CC(C)(C)OC(=O)C(C)C(C#N)(C#N)CCC(F)(F)F` (stereo not shown) [present invention compound (64), 2-(1-[(1,1-dimethyl-2-propynyl)oxycarbonyl]ethyl)-2-(3,3,3-trifluoropropyl)malononitrile], in the test on Blattella germanica, the pest or weed control at 500 ppm came to 100%. Turning to `C#CC(C)(CC)OC(=O)C(C)C(C#N)(C#N)CCC(F)(F)F` (stereo not shown) [present invention compound (65), 2-(1-[(1-ethyl-1-methyl-2-propynyl)oxycarbonyl]ethyl)-2-(3,3,3-trifluoropropyl)malononitrile], the pest or weed control at 500 ppm in the test on Blattella germanica came to 100%. Take `C=CC(C)(C)OC(=O)C(C)C(C#N)(C#N)CCC(F)(F)F` (stereo not shown) [present invention compound (67), 2-(1-[(1,1-dimethyl-2-propenyl)oxycarbonyl]ethyl)-2-(3,3,3-trifluoropropyl)malononitrile]: the pest or weed control at 500 ppm in the test with Blattella germanica was determined as 100%. On to `CC(C)CC(C)OC(=O)C(C)C(C#N)(C#N)CCC(F)(F)F` (stereo not shown) [present invention compound (69), 2-(1-[(1,3-dimethylbutoxy)carbonyl]ethyl)-2-(3,3,3-trifluoropropyl)malononitrile], for which, in the test with Culex pipiens pallens (setting [1]), the pest or weed control at 3.5 µg/mL came out at 100%. Still for that read-out and setting: next, `CC(C(=O)OCC(C)(C)C)C(C#N)(C#N)CCC(F)(F)F` (stereo not shown) [present invention compound (70), 2-(1-[(2,2dimethylpropoxy)carbonyl]ethyl)-2-(3,3,3-trifluoropropyl)malononitrile]: 100%.

Consider `COC(=O)C(C)C(C#N)(C#N)CCC(F)(F)F` (stereo not shown) [present invention compound (71), 2-[1-(methoxycarbonyl)ethyl]-2-(3,3,3-trifluoropropyl)malononitrile], for which the pest or weed control at 500 ppm with Musca domestics was not below 90%. For the same molecule, the pest or weed control at 3.5 µg/mL in the test on Culex pipiens pallens (setting [1]) stood at 100%. Take `CCOC(=O)CC(C)(C#N)C#N` [present invention compound (74), 2-(ethoxycarbonylmethyl)-2-methylmalononitrile]: the “number of parasitic Nilaparvata lugens” value in the test on Nilaparvata lugens is reported as not above 3. Same read-out and setting: next, `CCOC(=O)CCC(C#N)C#N` [reference compound (1), 2-[2-(ethoxycarbonyl)ethyl]malononitrile, reference compound]: not below 20.

These data come from patent US7439266B2, “Malononitrile compound and use thereof” (Sumitomo Chemical Company, Limited, priority 2002, dated 2008).
